What was measured:
Rat PMNL [1] = experiment: Myeloperoxidase (MPO) Release from rat PMNL; format: cell-based; conditions: for inhibition at 1 µM / inhibition at 3 µM / inhibition at 10 µM / inhibition at 30 µM / inhibition at 100 µM / inhibition at 300 µM: Rattus norvegicus, PMNL
Description: (§1) Rat PMNL were obtained from exudates resulting from peritoneal injection of 6 mL of 8% sodium caseinate. Eighteen hours after injection rats were killed by carbon dioxide inhalation and the peritoneal cavity lavaged with Hank's balanced salt solution (HBSS). After concentration of the PMNL by centrifugation, contaminating erythrocytes were removed by hypotonic lysis. The PMNL were then washed twice by centrifugation (400×g for 10 minutes) and resuspended in HBSS. Cell viability was greater than 90% by Trypan Blue exclusion and greater than 90% of the cells were PMNL by Wright-Giemsa stain.
MPO release was determined using the MPO catalyzed oxidation of o-dianisidine. The experiments were carried out in 96-well microtiter plates (Webster and Henson, 1978). In each well, 50 microliter (μ1) aliquots of a PMNL suspension (2×10^7 cell/mL in HBSS) were incubated with 50 μof HBSS containing vehicle (0.3% DMSO) or inhibitor for 30 minutes at 37° C. The final DMSO concentration never exceeded 0.3% and was constant throughout each experiment. To activate the PMNL, 50 μl of one of the following were added for 30 minutes at 37° C.: N-formyl-Met-Leu-Phe (fMLP; 0.1 μM); phorbol myristate acetate (PMA, 200 ng/mL); or rat serum opsonized zymosan (OZ; 2.6 mg/mL, prepared by the method of Ward et al., 1983). The stimuli were added in 50 μl HBSS which also contained the compounds or vehicle, as appropriate, to avoid changing the inhibitor concentration. Cell activation was terminated by centrifugation of the plates at 600×g for 5 minutes at 22° C. Aliquots (100 μl) of supernatant were removed from each well and transferred to a 96-well flatbottomed microtiter plate for the MPO assay. To each aliquot of supernatant was added 100 μl of a freshly prepared solution containing 50 μl of 0.2M sodium phosphate buffer (pH 6.2), 25 μl of 3.9 mM O-dianisidine and 25 μl of 0.015M hydrogen peroxide. Blanks were obtained using the same solution without hydrogen peroxide. The plates were mixed and then incubated at room temperature in the dark for about 15 minutes. Absorbances of the samples were measured at 450 nm.
Rat PMNL were isolated in HBSS containing Ca^+2. As summarized in the figure below, fMLP stimulation of rat PMNL in the presence of cytochalasin B or with opsonized zymosan or with ionomycin results in the release of myeloperoxidase (fMLP/MPO, OZ/MPO, and ION/MPO; columns 2, 4, and 6 respectively).

Rat PMNL [2] = experiment: Superoxide Anion (SOA) Production by rat PMNL; format: cell-based; conditions: for inhibition of superoxide anion production: PMA and OZ induced; for inhibition at 1 µM / inhibition at 3 µM / inhibition at 10 µM / inhibition at 30 µM / inhibition at 100 µM / inhibition at 300 µM: Rattus norvegicus, PMNL
Description: as §1
Aliquots (50 μl) of a rat PMNL suspension (2×10^7 cells/mL in HBSS) were incubated with 50 μl of HBSS containing vehicle (0.3% DMSO) or compound for 30 minutes at 37° C. as above. One hundred microliters of buffer containing 5.98 mg/mL of cytochrome C (Sigma Type III) and 0.1 mg/mL catalase, plus the compounds where appropriate, were then added to each sample. A blank for spectrophotometric measurement, containing unstimulated cells in the presence of cytochrome C, catalase and SOD, was also prepared. To activate the PMNL, 75 μl of PMA or OZ were added to achieve the final concentration of cell activator (plus vehicle or inhibitor as described above for MPO release) and the cells further incubated at 37° C. for 60 minutes. The activation was terminated by centrifugation at 600×g for 5 minutes at 4° C. Aliquots (200 μl) of supernatant were then transferred to a second, flat-well microtiter plate and measured spectrophotometrically at 550 nm. […]

[3] = fMLP + cytochalasin B, read-out: fMLP/MPO inhibition
[4] = ionomycin, read-out: ION/MPO inhibition
[5] = opsonized zymosan, read-out: OZ/MPO inhibition
[6] = fMLP + cytochalasin B, opsonized zymosan, ionomycin
[7] = PMA, read-out: PMA/SOA inhibition
[8] = opsonized zymosan, read-out: OZ/SOA inhibition

| SMILES | inhibition at 1 µM (Rat PMNL [1]; [3]) [%] | inhibition at 3 µM (Rat PMNL [1]; [3]) [%] | inhibition at 10 µM (Rat PMNL [1]; [3]) [%] | inhibition at 30 µM (Rat PMNL [1]; [3]) [%] | inhibition at 100 µM (Rat PMNL [1]; [3]) [%] | inhibition at 1 µM (Rat PMNL [1]; [4]) [%] | inhibition at 3 µM (Rat PMNL [1]; [4]) [%] | inhibition at 10 µM (Rat PMNL [1]; [4]) [%] | inhibition at 30 µM (Rat PMNL [1]; [4]) [%] | inhibition at 100 µM (Rat PMNL [1]; [4]) [%] | inhibition at 1 µM (Rat PMNL [1]; [5]) [%] | inhibition at 3 µM (Rat PMNL [1]; [5]) [%] | inhibition at 10 µM (Rat PMNL [1]; [5]) [%] | inhibition at 30 µM (Rat PMNL [1]; [5]) [%] | inhibition at 100 µM (Rat PMNL [1]; [5]) [%] | inhibition of myeloperoxidase release (Rat PMNL [1]; [6]) | inhibition of superoxide anion production (Rat PMNL [2]) | inhibition at 1 µM (Rat PMNL [2]; [7]) [%] | inhibition at 3 µM (Rat PMNL [2]; [7]) [%] | inhibition at 10 µM (Rat PMNL [2]; [7]) [%] | also measured |
| --- | --- | --- | --- | --- | --- | --- | --- | --- | --- | --- | --- | --- | --- | --- | --- | --- | --- | --- | --- | --- | --- |
| O=C(C=Cc1ccncc1)c1ccccc1 [MDL 29,355, 1-phenyl-3-(4-pyridinyl)-2-propene-1-one] | 0.1 | 5 | 16.5 | 53.3 | 101 | -4.5 | -1.7 | 14.8 | 24.4 | 89.1 | -1.7 | 3.4 | 3.6 | 3.2 | 7.1 | dose dependent inhibition of myeloperoxidase release | inhibited in a dose dependent fashion | -29.5 | -30.2 | -20.7 | inhibition at 300 µM (Rat PMNL [1]; [3]): 104%; inhibition at 300 µM (Rat PMNL [1]; [4]): 99.6%; inhibition at 300 µM (Rat PMNL [1]; [5]): 42.4%; inhibition at 30 µM (Rat PMNL [2]; [7]): -12.3%; inhibition at 100 µM (Rat PMNL [2]; [7]): 21.1%; inhibition at 300 µM (Rat PMNL [2]; [7]): 104%; inhibition at 1 µM (Rat PMNL [2]; [8]): -10.7%; inhibition at 3 µM (Rat PMNL [2]; [8]): -12.6%; inhibition at 10 µM (Rat PMNL [2]; [8]): 2.5%; inhibition at 30 µM (Rat PMNL [2]; [8]): 27.5%; inhibition at 100 µM (Rat PMNL [2]; [8]): 67.6%; inhibition at 300 µM (Rat PMNL [2]; [8]): 102% |
| CN(C)c1ccc(C(=O)C=Cc2ccncc2)cc1 [MDL 101,240, 1-(4-dimethylaminophenyl)-3-(4-pyridinyl)-2-propene-1-one] | 13.1 | 11.7 | 31.2 | 67.3 | 112 | -8 | -5 | -2 | 12 | 35.6 | 2.5 | 7.3 | 28.1 | 82.5 | 142 | dose dependent inhibition of myeloperoxidase release | inhibited in a dose dependent fashion | -7.2 | 4.7 | 5.9 | inhibition at 30 µM (Rat PMNL [2]; [7]): 34.5%; inhibition at 100 µM (Rat PMNL [2]; [7]): 81.5%; inhibition at 1 µM (Rat PMNL [2]; [8]): -7.8%; inhibition at 3 µM (Rat PMNL [2]; [8]): 2.5%; inhibition at 10 µM (Rat PMNL [2]; [8]): 21.3%; inhibition at 30 µM (Rat PMNL [2]; [8]): 66.3%; inhibition at 100 µM (Rat PMNL [2]; [8]): 85% |

— patent US5500429A, “Calcium uptake inhibitors” (Merrell Pharmaceuticals Inc., priority 1993, dated 1996)
